≈ marks a conversion by molar mass, not a printed value.
Tests used:
Test in all cases: MIC, standard broth micro-dilution assay
Assay type in all cases: cell-based
[1] = tested on: Entercoccus gallinarum 245
Procedure: (§1) The formula I compounds have in vitro and in vivo activity against Gram-positive pathogenic bacteria. The MIC's were determined using a standard broth micro-dilution assay.

Entercoccus faecalis 276 = tested on: Entercoccus faecalis 276
Procedure: as §1

[2] = tested on: Entercoccus faecalis 2041
Procedure: as §1

| MIC [1] [µg/mL] | MIC (Entercoccus faecalis 276) [µg/mL] | MIC [2] [µg/mL] | SMILES |
| --- | --- | --- | --- |
| 1 (≈ 0.56 µM) | ≤ 0.06 | ≤ 0.06 | CNC(CC(C)C)C(=O)NC1C(=O)NC(CC(N)=O)C(=O)NC2C(=O)NC3C(=O)NC(C(=O)NC(C(=O)O)c4cc(O)cc(O)c4-c4cc3ccc4O)C(OC3CC(C)(N)C(O)C(C)O3)c3ccc(c(Cl)c3)Oc3cc2cc(c3OC2OC(CO)C(O)C(O)C2OC2CC(C)(NCc3ccc(N=Nc4ccccc4)cc3)C(O)C(C)O2)Oc2ccc(cc2Cl)C1O (stereo not drawn) [Compound 210, 4-[phenylazo]benzyl] |
| 1 (≈ 0.548 µM) | 1 (≈ 0.548 µM) | ≤ 0.06 | CNC(CC(C)C)C(=O)NC1C(=O)NC(CC(N)=O)C(=O)NC2C(=O)NC3C(=O)NC(C(=O)NC(C(=O)O)c4cc(O)cc(O)c4-c4cc3ccc4O)C(OC3CC(C)(N)C(O)C(C)O3)c3ccc(c(Cl)c3)Oc3cc2cc(c3OC2OC(CO)C(O)C(O)C2OC2CC(C)(NCc3ccc(OC)c(OCC4CCCCC4)c3)C(O)C(C)O2)Oc2ccc(cc2Cl)C1O (stereo not drawn) [Compound 142, 3-[cyclohexylmethoxy]-4-methoxybenzyl] |
| 2 (≈ 1.11 µM) | ≤ 0.06 | ≤ 0.06 | CNC(CC(C)C)C(=O)NC1C(=O)NC(CC(N)=O)C(=O)NC2C(=O)NC3C(=O)NC(C(=O)NC(C(=O)O)c4cc(O)cc(O)c4-c4cc3ccc4O)C(OC3CC(C)(N)C(O)C(C)O3)c3ccc(c(Cl)c3)Oc3cc2cc(c3OC2OC(CO)C(O)C(O)C2OC2CC(C)(NCc3ccc(Cc4ccccc4)c(OC)c3)C(O)C(C)O2)Oc2ccc(cc2Cl)C1O (stereo not drawn) [Compound 104, 4-benzyl-3-methoxybenzyl] |
| 8 (≈ 4.52 µM) | 4 (≈ 2.26 µM) | 1 (≈ 0.565 µM) | CCCCCCCCCCC#CCNC1(C)CC(OC2C(Oc3c4cc5cc3Oc3ccc(cc3Cl)C(OC3CC(C)(N)C(O)C(C)O3)C3NC(=O)C(NC(=O)C5NC(=O)C(CC(N)=O)NC(=O)C(NC(=O)C(CC(C)C)NC)C(O)c5ccc(c(Cl)c5)O4)c4ccc(O)c(c4)-c4c(O)cc(O)cc4C(C(=O)O)NC3=O)OC(CO)C(O)C2O)OC(C)C1O (stereo not drawn) [Compound 191, 2-tridecynyl] |
| 4 (≈ 2.27 µM) | ≤ 0.06 | ≤ 0.06 | CNC(CC(C)C)C(=O)NC1C(=O)NC(CC(N)=O)C(=O)NC2C(=O)NC3C(=O)NC(C(=O)NC(C(=O)O)c4cc(O)cc(O)c4-c4cc3ccc4O)C(OC3CC(C)(N)C(O)C(C)O3)c3ccc(c(Cl)c3)Oc3cc2cc(c3OC2OC(CO)C(O)C(O)C2OC2CC(C)(NCc3cncc(-c4ccccc4)c3)C(O)C(C)O2)Oc2ccc(cc2Cl)C1O (stereo not drawn) [Compound 151, 5-phenyl-3-pyridinylmethyl] |
| 8 (≈ 4.24 µM) | 32 (≈ 17 µM) | 32 (≈ 17 µM) | CCCCCCCCOc1ccc(-c2ccc(CNC3(C)CC(OC4C(Oc5c6cc7cc5Oc5ccc(cc5Cl)C(OC5CC(C)(N)C(O)C(C)O5)C5NC(=O)C(NC(=O)C7NC(=O)C(CC(N)=O)NC(=O)C(NC(=O)C(CC(C)C)NC)C(O)c7ccc(c(Cl)c7)O6)c6ccc(O)c(c6)-c6c(O)cc(O)cc6C(C(=O)O)NC5=O)OC(CO)C(O)C4O)OC(C)C3O)cc2)cc1 (stereo not drawn) [Compound 23, 4-[4-octyloxyphenyl]benzyl] |
| 0.5 (≈ 0.328 µM) | 0.5 (≈ 0.328 µM) | 0.5 (≈ 0.328 µM) | CN[C@@H](CC(C)C)C(=O)N[C@H]1C(=O)N[C@H](CC(N)=O)C(=O)N[C@H]2C(=O)N[C@H]3C(=O)N[C@@H](C(=O)NC(C(=O)O)c4cc(O)cc(O)c4-c4cc3ccc4O)[C@@H](O[C@H]3C[C@](C)(N)[C@H](O)[C@@H](C)O3)c3ccc(cc3)Oc3cc2cc(c3O[C@H]2O[C@@H](CO)[C@@H](O)[C@H](O)[C@@H]2O[C@H]2C[C@](C)(N)[C@H](O)[C@@H](C)O2)Oc2ccc(cc2)[C@@H]1O (stereo partly drawn) [Compound A82846C, A82846C, reference compound] |
| 1 (≈ 0.55 µM) | ≤ 0.06 | ≤ 0.06 | CNC(CC(C)C)C(=O)NC1C(=O)NC(CC(N)=O)C(=O)NC2C(=O)NC3C(=O)NC(C(=O)NC(C(=O)O)c4cc(O)cc(O)c4-c4cc3ccc4O)C(OC3CC(C)(N)C(O)C(C)O3)c3ccc(c(Cl)c3)Oc3cc2cc(c3OC2OC(CO)C(O)C(O)C2OC2CC(C)(NCc3ccc(NC(=O)c4ccc(F)cc4)cc3)C(O)C(C)O2)Oc2ccc(cc2Cl)C1O (stereo not drawn) [Compound 193, 4-[(4-fluorobenzoyl)amino]benzyl] |
| ≤ 0.06 | 0.25 (≈ 0.144 µM) | ≤ 0.06 | CNC(CC(C)C)C(=O)NC1C(=O)NC(CC(N)=O)C(=O)NC2C(=O)NC3C(=O)NC(C(=O)NC(C(=O)O)c4cc(O)cc(O)c4-c4cc3ccc4O)C(OC3CC(C)(N)C(O)C(C)O3)c3ccc(c(Cl)c3)Oc3cc2cc(c3OC2OC(CO)C(O)C(O)C2OC2CC(C)(NCc3ccc4ccccc4n3)C(O)C(C)O2)Oc2ccc(cc2Cl)C1O (stereo not drawn) [Compound 30, 2-quinolylmethyl] |
| 2 (≈ 1.11 µM) | ≤ 0.06 | ≤ 0.06 | CNC(CC(C)C)C(=O)NC1C(=O)NC(CC(N)=O)C(=O)NC2C(=O)NC3C(=O)NC(C(=O)NC(C(=O)O)c4cc(O)cc(O)c4-c4cc3ccc4O)C(OC3CC(C)(N)C(O)C(C)O3)c3ccc(c(Cl)c3)Oc3cc2cc(c3OC2OC(CO)C(O)C(O)C2OC2CC(C)(NCc3cccc(OC(=O)c4ccccc4)c3)C(O)C(C)O2)Oc2ccc(cc2Cl)C1O (stereo not drawn) [Compound 162, 3-benzoyloxybenzyl] |
| 2 (≈ 1.11 µM) | 0.5 (≈ 0.276 µM) | ≤ 0.06 | CNC(CC(C)C)C(=O)NC1C(=O)NC(CC(N)=O)C(=O)NC2C(=O)NC3C(=O)NC(C(=O)NC(C(=O)O)c4cc(O)cc(O)c4-c4cc3ccc4O)C(OC3CC(C)(N)C(O)C(C)O3)c3ccc(c(Cl)c3)Oc3cc2cc(c3OC2OC(CO)C(O)C(O)C2OC2CC(C)(NCc3ccc(Oc4ccc(Cl)cc4)cc3)C(O)C(C)O2)Oc2ccc(cc2Cl)C1O (stereo not drawn) [Compound 240, 4-[4-chlorophenoxy]benzyl] |
| 1 (≈ 0.553 µM) | ≤ 0.06 | ≤ 0.06 | CNC(CC(C)C)C(=O)NC1C(=O)NC(CC(N)=O)C(=O)NC2C(=O)NC3C(=O)NC(C(=O)NC(C(=O)O)c4cc(O)cc(O)c4-c4cc3ccc4O)C(OC3CC(C)(N)C(O)C(C)O3)c3ccc(c(Cl)c3)Oc3cc2cc(c3OC2OC(CO)C(O)C(O)C2OC2CC(C)(NCc3ccc(OC(=O)C4CCCCC4)cc3)C(O)C(C)O2)Oc2ccc(cc2Cl)C1O (stereo not drawn) [Compound 157, 4-cyclohexanoyloxybenzyl] |
| 2 (≈ 1.08 µM) | ≤ 0.06 | ≤ 0.06 | CNC(CC(C)C)C(=O)NC1C(=O)NC(CC(N)=O)C(=O)NC2C(=O)NC3C(=O)NC(C(=O)NC(C(=O)O)c4cc(O)cc(O)c4-c4cc3ccc4O)C(OC3CC(C)(N)C(O)C(C)O3)c3ccc(c(Cl)c3)Oc3cc2cc(c3OC2OC(CO)C(O)C(O)C2OC2CC(C)(NCc3ccc(Oc4cccc(Cl)c4)c([N+](=O)[O-])c3)C(O)C(C)O2)Oc2ccc(cc2Cl)C1O (stereo not drawn) [Compound 87, 4-[3-chlorophenoxy]-3-nitrobenzyl] |
| 0.25 (≈ 0.148 µM) | 0.25 (≈ 0.148 µM) | ≤ 0.06 | CNC(CC(C)C)C(=O)NC1C(=O)NC(CC(N)=O)C(=O)NC2C(=O)NC3C(=O)NC(C(=O)NC(C(=O)O)c4cc(O)cc(O)c4-c4cc3ccc4O)C(OC3CC(C)(N)C(O)C(C)O3)c3ccc(c(Cl)c3)Oc3cc2cc(c3OC2OC(CO)C(O)C(O)C2OC2CC(C)(NCc3cccnc3)C(O)C(C)O2)Oc2ccc(cc2Cl)C1O (stereo not drawn) [Compound 24, 3-pyridylmethyl] |
| 0.25 (≈ 0.136 µM) | ≤ 0.06 | ≤ 0.06 | CNC(CC(C)C)C(=O)NC1C(=O)NC(CC(N)=O)C(=O)NC2C(=O)NC3C(=O)NC(C(=O)NC(C(=O)O)c4cc(O)cc(O)c4-c4cc3ccc4O)C(OC3CC(C)(N)C(O)C(C)O3)c3ccc(c(Cl)c3)Oc3cc2cc(c3OC2OC(CO)C(O)C(O)C2OC2CC(C)(NCc3ccc(Oc4ccc(Cl)c(Cl)c4)cc3)C(O)C(C)O2)Oc2ccc(cc2Cl)C1O (stereo not drawn) [Compound 81, 4-[3,4-dichlorophenoxy]benzyl] |
| 4 (≈ 2.21 µM) | 1 (≈ 0.553 µM) | 0.25 (≈ 0.138 µM) | CNC(CC(C)C)C(=O)NC1C(=O)NC(CC(N)=O)C(=O)NC2C(=O)NC3C(=O)NC(C(=O)NC(C(=O)O)c4cc(O)cc(O)c4-c4cc3ccc4O)C(OC3CC(C)(N)C(O)C(C)O3)c3ccc(c(Cl)c3)Oc3cc2cc(c3OC2OC(CO)C(O)C(O)C2OC2CC(C)(NCCCCCCCCCCc3ccccc3)C(O)C(C)O2)Oc2ccc(cc2Cl)C1O (stereo not drawn) [Compound 197, 10-phenyldecyl] |
| 2 (≈ 1.11 µM) | 1 (≈ 0.555 µM) | ≤ 0.06 | CNC(CC(C)C)C(=O)NC1C(=O)NC(CC(N)=O)C(=O)NC2C(=O)NC3C(=O)NC(C(=O)NC(C(=O)O)c4cc(O)cc(O)c4-c4cc3ccc4O)C(OC3CC(C)(N)C(O)C(C)O3)c3ccc(c(Cl)c3)Oc3cc2cc(c3OC2OC(CO)C(O)C(O)C2OC2CC(C)(NCc3ccc(OC(=O)c4ccccc4)cc3)C(O)C(C)O2)Oc2ccc(cc2Cl)C1O (stereo not drawn) [Compound 150, 4-benzoyloxybenzyl] |
| ≤ 0.06 | ≤ 0.06 | ≤ 0.06 | CNC(CC(C)C)C(=O)NC1C(=O)NC(CC(N)=O)C(=O)NC2C(=O)NC3C(=O)NC(C(=O)NC(C(=O)O)c4cc(O)cc(O)c4-c4cc3ccc4O)C(OC3CC(C)(N)C(O)C(C)O3)c3ccc(c(Cl)c3)Oc3cc2cc(c3OC2OC(CO)C(O)C(O)C2OC2CC(C)(NCc3sccc3-c3cccs3)C(O)C(C)O2)Oc2ccc(cc2Cl)C1O (stereo not drawn) [Compound 238, 3-[2-thienyl]-2-thienylmethyl] |
| 1 (≈ 0.541 µM) | ≤ 0.06 | ≤ 0.06 | CNC(CC(C)C)C(=O)NC1C(=O)NC(CC(N)=O)C(=O)NC2C(=O)NC3C(=O)NC(C(=O)NC(C(=O)O)c4cc(O)cc(O)c4-c4cc3ccc4O)C(OC3CC(C)(N)C(O)C(C)O3)c3ccc(c(Cl)c3)Oc3cc2cc(c3OC2OC(CO)C(O)C(O)C2OC2CC(C)(NCc3ccc(-c4ccc([N+](=O)[O-])cc4)c([N+](=O)[O-])c3)C(O)C(C)O2)Oc2ccc(cc2Cl)C1O (stereo not drawn) [Compound 212, 3-nitro-4-[4-nitrophenyl]benzyl] |
